Legend:
kinase domain of BMX = target: T1, kinase domain of BMX (Homo sapiens, UniProt P51813); test: Thermal shift (ΔTm) assay; type: binding; settings: 2 μM kinase domain, 10 μM inhibitor; mean ± SD of at least three measurements
T1 construct: The kinase domains of JAK3 and BMX at 2 μM
Description: (§1) The kinase domains of JAK3 and BMX at 2 μM were mixed with the inhibitors at 10 μM, and subsequently SyPRO orange dye (Invitrogen Carlsbad, CA, USA) was added. The thermal shift assay and data evaluation were performed as described previously using a Real-Time PCR Mx3005p machine (Stratagene, La Jolla, CA, USA).

kinase domain of JAK3 = target: T2, kinase domain of JAK3 (Homo sapiens, UniProt P52333); test: Thermal shift (ΔTm) assay; type: binding; settings: 2 μM kinase domain, 10 μM inhibitor; mean ± SD of at least three measurements
T2 construct: The kinase domains of JAK3 and BMX at 2 μM; made in house
T2 sequence (P52333 822-1111 limits assumed): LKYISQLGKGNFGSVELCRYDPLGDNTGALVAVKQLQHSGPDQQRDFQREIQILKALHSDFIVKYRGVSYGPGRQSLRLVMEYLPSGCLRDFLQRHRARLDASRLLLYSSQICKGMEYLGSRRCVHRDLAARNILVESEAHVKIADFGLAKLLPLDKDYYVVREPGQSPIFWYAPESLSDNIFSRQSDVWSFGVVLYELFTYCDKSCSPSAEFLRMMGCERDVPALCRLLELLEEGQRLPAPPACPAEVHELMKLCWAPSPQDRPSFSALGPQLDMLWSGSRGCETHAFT
Description: as §1

[1] = target: T3, Full length BMX (C-terminal NanoLuc fusion) (Homo sapiens, UniProt P51813); test: Cellular NanoBRET target engagement assay in HEK293T cells; type: cell-based; settings: 0.5 µM Tracer K4, 2 h incubation
T3 construct: Full length BMX and BTK was cloned into pFC32K; expressed in transfected cells; host or cells: HEK293T
T3 sequence (P51813 1-675): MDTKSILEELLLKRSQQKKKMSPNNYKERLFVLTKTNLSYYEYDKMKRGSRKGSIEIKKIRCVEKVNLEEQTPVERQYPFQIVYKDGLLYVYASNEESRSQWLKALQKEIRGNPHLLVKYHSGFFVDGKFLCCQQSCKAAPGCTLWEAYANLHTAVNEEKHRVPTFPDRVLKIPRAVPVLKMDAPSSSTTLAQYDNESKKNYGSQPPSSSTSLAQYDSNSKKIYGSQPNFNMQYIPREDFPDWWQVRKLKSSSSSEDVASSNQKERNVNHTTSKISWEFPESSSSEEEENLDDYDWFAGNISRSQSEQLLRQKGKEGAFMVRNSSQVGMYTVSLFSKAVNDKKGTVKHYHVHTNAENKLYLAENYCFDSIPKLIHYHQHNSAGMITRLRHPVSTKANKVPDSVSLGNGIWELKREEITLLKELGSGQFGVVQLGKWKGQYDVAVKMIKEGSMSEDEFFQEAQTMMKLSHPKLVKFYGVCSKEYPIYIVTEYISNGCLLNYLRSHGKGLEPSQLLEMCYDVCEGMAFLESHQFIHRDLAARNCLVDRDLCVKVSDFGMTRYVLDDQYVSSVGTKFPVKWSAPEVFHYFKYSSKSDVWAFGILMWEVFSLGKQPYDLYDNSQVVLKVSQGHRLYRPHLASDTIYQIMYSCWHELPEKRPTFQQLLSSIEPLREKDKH
Description: (§2) Full length BMX and BTK was cloned into pFC32K (Promega, Madison, WI, USA) for expression of a C-terminal NanoLuc fusion. The plasmids were transfected into HEK293T cells cultured in DMEM (Gibco, Waltham, MA, USA) supplemented with 10% fetal bovine serum (Gibco, Waltham, MA, USA) and Penicillin/Streptamycin (Gibco, Waltham, MA, USA). NanoBRET assays were performed using the protocol published previously. Briefly, after transfection and 20 h incubation cells were harvested and subsequently resuspended in OptiMEM (Gibco, Waltham, MA, USA). Cells were aliquoted onto […] (Greiner, Kremsmünster, Austria), and inhibitors as well as 0.5 µM Tracer K4 (Promega) for BMX or 0.5 µM Tracer K5 (Promega, Madison, WI, USA) for BTK were added using an ECHO acoustic dispenser. The plates were incubated at 37 °C with 5% CO2 for 2 h prior to the addition of both NanoBRET NanoGlo substrate (Promega, Madison, WI, USA) and extracellular NanoLuc inhibitor. BRET luminescence (450 nm for donor emission and 610 nm for BRET signal) was measured using PHERAstar FSX plate reader (BMG Labtech, Ortenberg, Germany). Milli-BRET units (mBU) were calculated as a ratio between BRET signal and the overall measured luminescence. A dose–response fitting was applied and IC50 values were calculated using the Prism software. […] Experiments were performed as tripicates and repeated at least three times.

[2] = target: T4, Full length BTK (C-terminal NanoLuc fusion) (Homo sapiens, UniProt Q06187); test: as above; type: cell-based; settings: 0.5 µM Tracer K5, 2 h incubation
T4 construct: Full length BMX and BTK was cloned into pFC32K; expressed in transfected cells; host or cells: HEK293T
T4 sequence (Q06187 whole entry, the tested form may be a part): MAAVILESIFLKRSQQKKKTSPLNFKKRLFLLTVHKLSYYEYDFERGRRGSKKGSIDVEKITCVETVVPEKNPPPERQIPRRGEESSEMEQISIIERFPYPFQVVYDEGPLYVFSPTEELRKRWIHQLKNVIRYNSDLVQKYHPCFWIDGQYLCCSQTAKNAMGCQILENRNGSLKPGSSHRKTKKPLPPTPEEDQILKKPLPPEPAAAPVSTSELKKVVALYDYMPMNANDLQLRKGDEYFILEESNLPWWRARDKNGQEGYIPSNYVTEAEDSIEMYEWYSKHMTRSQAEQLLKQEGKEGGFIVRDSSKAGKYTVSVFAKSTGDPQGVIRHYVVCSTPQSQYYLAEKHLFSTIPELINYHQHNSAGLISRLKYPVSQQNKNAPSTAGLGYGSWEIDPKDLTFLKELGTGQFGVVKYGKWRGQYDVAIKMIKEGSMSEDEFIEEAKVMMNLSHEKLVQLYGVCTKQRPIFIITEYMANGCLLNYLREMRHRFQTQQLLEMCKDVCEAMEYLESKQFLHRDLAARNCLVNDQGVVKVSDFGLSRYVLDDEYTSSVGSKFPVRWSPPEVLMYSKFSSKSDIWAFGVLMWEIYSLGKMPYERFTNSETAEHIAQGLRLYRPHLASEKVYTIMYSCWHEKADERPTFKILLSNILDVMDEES
Description: as §2

JAK1 = target: T5, JAK1 (Homo sapiens, UniProt P23458); test: Radiometric kinase assay (Reaction Biology HotSpot); type: biochemical; settings: five-dose singlicate, [ATP] = 10 μM
T5 construct: purchased Reaction Biology Corporation
T5 sequence (P23458 whole entry): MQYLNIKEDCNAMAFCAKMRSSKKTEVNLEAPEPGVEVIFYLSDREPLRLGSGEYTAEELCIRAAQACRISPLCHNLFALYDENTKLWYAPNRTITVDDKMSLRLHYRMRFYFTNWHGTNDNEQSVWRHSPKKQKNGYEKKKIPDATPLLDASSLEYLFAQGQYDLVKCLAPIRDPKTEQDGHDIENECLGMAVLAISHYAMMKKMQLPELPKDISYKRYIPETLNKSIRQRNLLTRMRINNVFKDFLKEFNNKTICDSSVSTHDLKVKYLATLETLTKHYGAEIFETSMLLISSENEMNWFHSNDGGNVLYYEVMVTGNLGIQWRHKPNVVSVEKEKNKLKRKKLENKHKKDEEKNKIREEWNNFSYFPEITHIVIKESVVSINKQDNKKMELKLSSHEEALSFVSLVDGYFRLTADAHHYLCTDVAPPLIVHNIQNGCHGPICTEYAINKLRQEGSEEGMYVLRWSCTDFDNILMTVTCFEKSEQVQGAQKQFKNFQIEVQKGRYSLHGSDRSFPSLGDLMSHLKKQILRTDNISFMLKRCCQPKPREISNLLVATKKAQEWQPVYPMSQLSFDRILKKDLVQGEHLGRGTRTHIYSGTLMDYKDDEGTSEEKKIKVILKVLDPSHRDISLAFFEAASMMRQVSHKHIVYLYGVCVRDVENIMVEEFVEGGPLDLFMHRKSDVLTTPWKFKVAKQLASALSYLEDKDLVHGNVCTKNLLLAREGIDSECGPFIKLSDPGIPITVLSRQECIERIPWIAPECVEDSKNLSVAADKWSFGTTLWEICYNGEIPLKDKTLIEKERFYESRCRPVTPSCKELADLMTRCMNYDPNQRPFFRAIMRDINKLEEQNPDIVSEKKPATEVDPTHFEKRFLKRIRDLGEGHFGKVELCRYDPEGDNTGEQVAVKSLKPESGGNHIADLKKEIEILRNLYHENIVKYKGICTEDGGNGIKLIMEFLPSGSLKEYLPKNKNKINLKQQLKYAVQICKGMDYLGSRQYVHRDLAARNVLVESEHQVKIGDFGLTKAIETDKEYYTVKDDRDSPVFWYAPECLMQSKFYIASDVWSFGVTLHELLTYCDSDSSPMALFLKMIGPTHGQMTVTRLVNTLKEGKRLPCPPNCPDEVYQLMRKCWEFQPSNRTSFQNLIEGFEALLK
Description: (§3) If not mentioned differently, in vitro profiling of compounds was performed at Reaction Biology Corporation using the HotSpot™ assay platform.

JAK2 = target: T6, JAK2 (Homo sapiens, UniProt O60674); test: as above; type: biochemical; settings: five-dose singlicate, [ATP] = 10 μM
T6 construct: purchased Reaction Biology Corporation
T6 sequence (O60674 whole entry): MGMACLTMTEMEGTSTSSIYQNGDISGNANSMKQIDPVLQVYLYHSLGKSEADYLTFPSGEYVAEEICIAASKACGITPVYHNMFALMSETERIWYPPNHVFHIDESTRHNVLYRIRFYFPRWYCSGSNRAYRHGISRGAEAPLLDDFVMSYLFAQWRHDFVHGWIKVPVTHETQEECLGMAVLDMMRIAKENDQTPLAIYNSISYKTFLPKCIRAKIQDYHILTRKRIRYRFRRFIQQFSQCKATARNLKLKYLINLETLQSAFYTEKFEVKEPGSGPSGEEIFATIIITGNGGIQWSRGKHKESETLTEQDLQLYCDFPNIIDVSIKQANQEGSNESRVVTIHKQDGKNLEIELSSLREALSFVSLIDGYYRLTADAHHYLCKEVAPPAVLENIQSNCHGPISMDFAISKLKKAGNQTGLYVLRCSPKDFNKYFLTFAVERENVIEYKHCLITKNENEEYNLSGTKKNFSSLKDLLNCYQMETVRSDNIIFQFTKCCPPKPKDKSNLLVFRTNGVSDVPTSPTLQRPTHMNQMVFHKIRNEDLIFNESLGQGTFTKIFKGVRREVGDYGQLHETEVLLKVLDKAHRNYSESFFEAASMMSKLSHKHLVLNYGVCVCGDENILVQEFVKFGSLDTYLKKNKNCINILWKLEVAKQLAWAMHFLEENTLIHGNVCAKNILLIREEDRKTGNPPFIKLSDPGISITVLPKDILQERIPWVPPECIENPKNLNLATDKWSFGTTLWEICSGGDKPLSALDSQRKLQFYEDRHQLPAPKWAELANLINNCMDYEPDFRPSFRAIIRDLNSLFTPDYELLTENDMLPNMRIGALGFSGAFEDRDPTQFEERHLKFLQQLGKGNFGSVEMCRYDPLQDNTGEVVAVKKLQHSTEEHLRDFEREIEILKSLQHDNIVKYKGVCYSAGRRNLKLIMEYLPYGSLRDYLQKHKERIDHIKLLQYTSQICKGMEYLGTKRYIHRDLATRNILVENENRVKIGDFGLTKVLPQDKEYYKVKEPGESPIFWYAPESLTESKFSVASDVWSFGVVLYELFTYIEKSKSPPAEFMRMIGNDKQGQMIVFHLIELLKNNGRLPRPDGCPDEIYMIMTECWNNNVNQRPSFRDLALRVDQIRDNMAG
Description: as §3

TYK2 = target: T7, TYK2 (Homo sapiens, UniProt P29597); test: as above; type: biochemical; settings: five-dose singlicate, [ATP] = 10 μM
T7 construct: purchased Reaction Biology Corporation
T7 sequence (P29597 whole entry): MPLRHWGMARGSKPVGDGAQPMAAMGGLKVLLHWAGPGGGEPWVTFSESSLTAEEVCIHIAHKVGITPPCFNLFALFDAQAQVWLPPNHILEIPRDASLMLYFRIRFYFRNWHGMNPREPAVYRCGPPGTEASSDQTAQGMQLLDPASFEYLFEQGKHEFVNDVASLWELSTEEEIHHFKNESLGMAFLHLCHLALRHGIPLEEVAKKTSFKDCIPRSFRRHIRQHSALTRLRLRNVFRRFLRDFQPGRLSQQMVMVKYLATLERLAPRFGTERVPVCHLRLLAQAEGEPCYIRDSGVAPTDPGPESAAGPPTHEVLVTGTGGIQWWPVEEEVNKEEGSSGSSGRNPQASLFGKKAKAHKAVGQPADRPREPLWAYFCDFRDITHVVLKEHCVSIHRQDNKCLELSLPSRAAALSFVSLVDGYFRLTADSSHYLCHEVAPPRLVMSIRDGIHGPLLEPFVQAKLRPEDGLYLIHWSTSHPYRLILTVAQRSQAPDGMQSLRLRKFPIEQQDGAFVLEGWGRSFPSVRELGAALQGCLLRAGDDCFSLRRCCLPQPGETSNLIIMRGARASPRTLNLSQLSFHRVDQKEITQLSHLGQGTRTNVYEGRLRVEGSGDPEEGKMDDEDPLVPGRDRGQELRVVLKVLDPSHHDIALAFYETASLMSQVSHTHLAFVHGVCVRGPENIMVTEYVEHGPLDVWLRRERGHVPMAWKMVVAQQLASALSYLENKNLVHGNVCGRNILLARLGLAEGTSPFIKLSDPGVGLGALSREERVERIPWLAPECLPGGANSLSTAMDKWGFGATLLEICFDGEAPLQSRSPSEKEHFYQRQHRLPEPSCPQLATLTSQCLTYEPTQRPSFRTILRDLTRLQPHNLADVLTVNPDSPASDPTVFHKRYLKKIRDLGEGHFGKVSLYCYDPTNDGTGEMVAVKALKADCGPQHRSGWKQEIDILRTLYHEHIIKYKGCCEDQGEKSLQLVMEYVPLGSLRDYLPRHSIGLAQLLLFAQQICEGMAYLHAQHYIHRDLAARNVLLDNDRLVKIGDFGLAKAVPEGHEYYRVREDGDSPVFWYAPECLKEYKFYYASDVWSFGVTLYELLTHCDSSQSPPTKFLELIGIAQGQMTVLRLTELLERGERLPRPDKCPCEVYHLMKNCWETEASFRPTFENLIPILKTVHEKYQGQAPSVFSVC
Description: as §3

ΔTm at 10 µM (kinase domain of BMX) [°C] | ΔTm at 10 µM (kinase domain of JAK3) [°C] | IC50 [1] [nM] | IC50 [2] [nM] | IC50 (JAK1) [nM] | IC50 (JAK2) [nM] | IC50 (TYK2) [nM] | Structure (SMILES)
11.52 ± 0.08 | 7.36 ± 0.44 | 3 ± 1 | 9 ± 1 |  |  |  | C=CC(=O)Nc1cccc(-c2c[nH]c3ncc(NC(=O)c4cccs4)cc23)c1 [Compound 12c, N-(3-(3-acrylamidophenyl)-1H-pyrrolo[2,3-b]pyridin-5-yl)thiophene-2-carboxamide]
10.49 ± 0.09 | 21.07 ± 0.03 | 765 ± 283 | 283 ± 24 | 460 | 1120 | 1900 | C=CC(=O)Nc1cccc(-c2c[nH]c3ncc(C(N)=O)cc23)c1 [Compound 10a, 3-(3-acrylamidophenyl)-1H-pyrrolo[2,3-b]pyridine-5-carboxamide]
 |  | 26 ± 11 | 15 ± 2 | 2970 | 3580 | 5540 | C=CC(=O)Nc1cccc(-c2c[nH]c3ncccc23)c1 [Compound 9a, N-(3-(1H-pyrrolo[2,3-b]pyridin-3-yl)phenyl)acrylamide]
5.31 ± 0.18 | 9.12 ± 0.02 | 6070 ± 1830 | 2070 ± 32 |  |  |  | C=CC(=O)Nc1cccc(-c2c[nH]c3ncc(C(=O)NC4CCCC4)cc23)c1 [Compound 11a, 3-(3-acrylamidophenyl)-N-cyclopentyl-1H-pyrrolo[2,3-b]pyridine-5-carboxamide]
 |  | > 10000 | 8210 ± 3460 |  |  |  | CCC(=O)Nc1cccc(-c2c[nH]c3ncc(NC(=O)C4CCCC4)cc23)c1 [Compound 12b, N-(3-(3-propionamidophenyl)-1H-pyrrolo[2,3-b]pyridin-5-yl)cyclopentanecarboxamide]

Source: article PMC7730235, “Discovery of a Novel Class of Covalent Dual Inhibitors Targeting the Protein Kinases BMX and BTK” (International Journal of Molecular Sciences, 2020)
